How the values were obtained:
[1] = biological target: T1, mouse RetSat (Mus musculus, UniProt Q64FW2); experiment: RetSat saturase activity in Tet-induced HEKK-RetSat cells; format: cell-based; settings: 40 μM substrate, overnight incubation
T1 construct: expressed in transfected cells
T1 sequence (Q64FW2 26-609): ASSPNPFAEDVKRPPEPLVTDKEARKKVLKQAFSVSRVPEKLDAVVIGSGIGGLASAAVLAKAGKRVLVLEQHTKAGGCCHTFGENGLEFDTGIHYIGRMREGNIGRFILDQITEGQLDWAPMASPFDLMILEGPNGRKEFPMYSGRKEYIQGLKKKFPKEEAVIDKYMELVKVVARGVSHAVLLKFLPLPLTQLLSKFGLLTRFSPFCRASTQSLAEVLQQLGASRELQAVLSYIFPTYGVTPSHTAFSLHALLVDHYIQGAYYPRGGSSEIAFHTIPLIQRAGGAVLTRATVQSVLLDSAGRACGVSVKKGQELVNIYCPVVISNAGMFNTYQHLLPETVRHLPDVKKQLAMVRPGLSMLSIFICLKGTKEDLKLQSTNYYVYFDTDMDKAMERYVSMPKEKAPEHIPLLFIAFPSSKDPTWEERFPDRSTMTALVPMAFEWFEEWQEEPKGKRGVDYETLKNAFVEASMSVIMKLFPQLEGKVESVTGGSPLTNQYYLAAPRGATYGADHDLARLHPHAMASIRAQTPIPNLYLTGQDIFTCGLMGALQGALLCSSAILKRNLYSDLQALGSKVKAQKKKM
Protocol: Enzyme assays of RetSat and CRTISO-catalyzed reactions. For enzyme assay, cells were seeded in six-well plates and expression of RetSat or CRTISO was induced with 1 μg/ml tetracycline 48 hr prior to analysis. Substrate preparation and addition were conducted under dim red light. Retinoid substrates were purified by HPLC as described above and dissolved in N,N-dimethylformamide (DMF) to a final concentration of 4 mM. Organic extract of tangerine tomatoes was dried under a stream of argon and resuspended in DMF. The substrates were diluted in 300 μl complete media (tetracycline 1 μg/ml) to a 40 μM final concentration, overlayed on cells, and incubated overnight in the dark at 37° C. in 5% CO2 and 100% humidity. Media and cells were collected by scraping, mixed with an equal volume of methanol. For retinol and dihydroretinol analysis the methanol:water mixture was extracted with two volumes of hexane, then the organic phase was dried, resuspended in hexane, and analyzed by normal-phase HPLC. […] For carotenoid analysis the organic phase was dried and resuspended in ethanol/tetrahydrofuran (9:1) and examined by reverse-phase HPLC System I. For retinoic acid analysis the 1:1 methanol:water mixture was acidified with 0.1 volumes of 12N HCl and extracted with 1 volume of chlorofom, dried and resuspended in ethanol and examined by reverse-phase HPLC System II.

[2] = biological target: T2, tomato CRTISO (Solanum lycopersicum, UniProt Q8S4R4); experiment: CRTISO activity in transfected HEKK cells; format: cell-based; settings: CRTISO-expressing cells, overnight, in the dark
T2 construct: expressed in transfected cells
T2 sequence (Q8S4R4 with tags, fused parts or gaps): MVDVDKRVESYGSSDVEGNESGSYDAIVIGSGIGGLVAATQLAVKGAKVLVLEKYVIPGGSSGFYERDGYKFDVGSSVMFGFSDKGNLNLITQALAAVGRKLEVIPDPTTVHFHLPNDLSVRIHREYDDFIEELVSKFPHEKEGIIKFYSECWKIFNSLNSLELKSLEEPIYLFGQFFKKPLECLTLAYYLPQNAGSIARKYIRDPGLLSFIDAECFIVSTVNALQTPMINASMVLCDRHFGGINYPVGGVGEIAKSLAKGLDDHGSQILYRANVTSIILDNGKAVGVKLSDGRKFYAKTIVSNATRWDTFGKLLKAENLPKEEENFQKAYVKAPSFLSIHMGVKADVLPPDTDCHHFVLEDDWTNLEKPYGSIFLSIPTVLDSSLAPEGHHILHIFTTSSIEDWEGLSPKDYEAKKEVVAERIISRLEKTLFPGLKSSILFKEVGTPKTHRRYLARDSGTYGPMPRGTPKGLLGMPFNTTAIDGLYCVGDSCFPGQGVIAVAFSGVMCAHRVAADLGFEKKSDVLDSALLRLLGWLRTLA
Protocol: 7Z,9Z,9′Z,7′Z-Tetra-cis-tycopene purification and reverse-phase HPLC analysis of carotenoids. Carotenoid extraction and analysis were performed under dim red light. One gram from the fruit of a tangerine tomato was freeze-thawed three times and extracted with 2 ml PBS, 2 ml of ethanol, and 6 ml of hexane with the aid of a douncer. The organic phase was dried and resuspended in ethanol/tetrahydrofuran (9:1), and examined by reverse-phase HPLC System I (Prontosil, 200-3-C30, 3 μm, 4.6 mm×250 mm, Bischoff Chromatography, Leonberg, Germany) with a mobile phase of 75% tert-butyl methyl ether/25% methanol and a flow rate of 1 ml/min. More than 90% of the extract consisted of 7Z,9Z,9′Z,7′Z-tetra-cis-lycopene identified based on its published UV/VIS absorption spectrum in hexane with the following characteristics: shoulder at λ=417 nm, ε=90,000 M^−1cm^−1, λmax=437 nm, ε=105,000 M−1 cm^−1, shoulder at λ=461 nm ε=70,000 M^−1cm^−1. Bradford, Anal Biochem 72:248-254, 1976.
Enzyme assays of RetSat and CRTISO-catalyzed reactions. For enzyme assay, cells were seeded in six-well plates and expression of RetSat or CRTISO was induced with 1 μg/ml tetracycline 48 hr prior to analysis. […] For retinol and dihydroretinol analysis the methanol:water mixture was extracted with two volumes of hexane, then the organic phase was dried, resuspended in hexane, and analyzed by normal-phase HPLC. […]

[3] = biological target: T1, mouse RetSat; settings: earlier report, Moise et al. 2004; cited from earlier work

| SMILES | Saturation by RetSat (substrate activity) [1] | Conversion by CRTISO (substrate activity) [2] | Saturation by RetSat [3] |
| --- | --- | --- | --- |
| CC(C)=CCC/C(C)=C/C=C/C(C)=C/C=C/C(C)=C/C=C/C=C(C)/C=C/C=C(C)/C=C/C=C(\C)CCC=C(C)C [7Z,9Z,9′Z,7′Z-tetra-cis-lycopene] | no difference | converted |  |
| CC1=C(/C=C/C(C)=C\C=C\C(C)=C\C(=O)O)C(C)(C)CCC1 [9-cis-RA, 9-cis-retinoic acid] |  |  | does not saturate |
